The target of assay [1] is T1, Sodium channel protein type 2 subunit alpha (Homo sapiens, UniProt Q99250). Description: Ratio of IC50 for Nav1.2 (unknown origin) by cell based assay to IC50 for human Nav1.2 expressed in HEK293T cells assessed as inhibition of VTD-induced tail current.
Target sequence in this assay (Q99250 whole entry, looked up): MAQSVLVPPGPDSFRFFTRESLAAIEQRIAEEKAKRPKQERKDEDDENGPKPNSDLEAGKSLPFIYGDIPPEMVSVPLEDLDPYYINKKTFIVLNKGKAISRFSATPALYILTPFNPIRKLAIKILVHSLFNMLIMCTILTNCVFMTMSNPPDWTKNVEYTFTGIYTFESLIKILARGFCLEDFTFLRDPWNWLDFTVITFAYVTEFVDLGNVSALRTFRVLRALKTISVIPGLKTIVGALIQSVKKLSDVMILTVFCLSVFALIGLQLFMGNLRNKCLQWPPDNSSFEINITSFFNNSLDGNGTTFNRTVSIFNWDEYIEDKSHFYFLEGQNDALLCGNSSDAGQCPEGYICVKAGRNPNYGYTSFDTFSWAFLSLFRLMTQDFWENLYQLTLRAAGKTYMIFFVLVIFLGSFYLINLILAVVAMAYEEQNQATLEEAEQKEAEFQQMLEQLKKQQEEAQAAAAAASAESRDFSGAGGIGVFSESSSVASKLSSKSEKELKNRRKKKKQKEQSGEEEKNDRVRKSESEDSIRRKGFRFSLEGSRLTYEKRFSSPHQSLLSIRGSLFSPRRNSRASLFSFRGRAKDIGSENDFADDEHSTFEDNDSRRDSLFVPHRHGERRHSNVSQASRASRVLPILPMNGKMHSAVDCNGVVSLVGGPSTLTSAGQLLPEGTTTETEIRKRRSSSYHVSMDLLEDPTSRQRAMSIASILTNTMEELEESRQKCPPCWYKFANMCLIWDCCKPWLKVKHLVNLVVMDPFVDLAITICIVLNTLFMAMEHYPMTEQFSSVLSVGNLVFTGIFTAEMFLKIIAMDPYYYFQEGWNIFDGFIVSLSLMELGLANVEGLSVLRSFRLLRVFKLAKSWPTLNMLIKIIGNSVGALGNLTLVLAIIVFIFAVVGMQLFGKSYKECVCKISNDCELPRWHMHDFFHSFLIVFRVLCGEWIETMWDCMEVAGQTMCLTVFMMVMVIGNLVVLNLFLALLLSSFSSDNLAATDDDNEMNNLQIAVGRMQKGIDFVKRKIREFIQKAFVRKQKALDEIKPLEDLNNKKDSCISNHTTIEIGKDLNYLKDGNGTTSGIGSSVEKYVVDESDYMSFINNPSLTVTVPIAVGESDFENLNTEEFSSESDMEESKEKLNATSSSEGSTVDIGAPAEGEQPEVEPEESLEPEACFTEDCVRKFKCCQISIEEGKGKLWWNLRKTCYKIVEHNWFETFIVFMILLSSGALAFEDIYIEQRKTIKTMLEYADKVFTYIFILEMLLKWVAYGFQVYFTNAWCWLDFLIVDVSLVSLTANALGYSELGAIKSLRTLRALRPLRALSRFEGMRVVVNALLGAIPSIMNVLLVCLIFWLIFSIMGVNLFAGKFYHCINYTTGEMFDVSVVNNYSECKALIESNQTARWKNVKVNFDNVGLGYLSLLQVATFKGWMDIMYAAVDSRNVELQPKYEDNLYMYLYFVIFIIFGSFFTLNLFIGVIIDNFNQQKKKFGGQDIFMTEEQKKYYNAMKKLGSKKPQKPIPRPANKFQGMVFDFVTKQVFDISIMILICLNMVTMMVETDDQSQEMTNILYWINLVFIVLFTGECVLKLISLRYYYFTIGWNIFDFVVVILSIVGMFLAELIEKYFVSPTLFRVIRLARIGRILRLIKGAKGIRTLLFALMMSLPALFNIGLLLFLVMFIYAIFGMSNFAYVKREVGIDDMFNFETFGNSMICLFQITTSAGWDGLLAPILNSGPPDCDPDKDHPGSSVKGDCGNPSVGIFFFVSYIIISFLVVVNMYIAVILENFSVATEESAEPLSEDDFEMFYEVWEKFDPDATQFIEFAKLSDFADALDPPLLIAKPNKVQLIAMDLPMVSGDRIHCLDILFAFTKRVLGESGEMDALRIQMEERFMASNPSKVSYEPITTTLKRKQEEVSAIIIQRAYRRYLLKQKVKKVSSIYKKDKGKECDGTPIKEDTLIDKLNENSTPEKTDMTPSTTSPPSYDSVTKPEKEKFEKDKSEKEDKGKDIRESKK
Assay [2] has as its target T1, Sodium channel protein type 2 subunit alpha. Description: Inhibition of Nav1.2 (unknown origin) by cell based assay.
Target sequence in this assay (Q99250 whole entry): as the sequence (Q99250 whole entry, looked up) above
For assay [3] the target is unchanged. Description: Antagonist activity at human Nav1.2 expressed in HEK293T cells assessed as inhibition of VTD-induced sustained current by whole cell patch clamp method relative to control. The note with it: for inhibition: HEK-293T. Format: cell-based, HEK-293T. (In patch-clamp work, channel activity is measured electrically.)
For assay [4] the target is unchanged. Nature of the assay: Antagonist activity at human Nav1.2 expressed in HEK293T cells assessed as inhibition of VTD-induced tail current by whole cell patch clamp method relative to control. The class given is cell-based, HEK-293T. The conditions noted are these: for inhibition: HEK-293T.
Assay [5] shares this target. Description: Antagonist activity at human Nav1.2 expressed in HEK293T cells assessed as inhibition of VTD-induced peak current up to 10 nM by whole cell patch clamp method relative to control. The class given is cell-based. The conditions noted are these: HEK-293T.
Target sequence in this assay (Q99250 whole entry, looked up): as above
Assay [6] has as its target Sodium channel protein type 8 subunit alpha (Homo sapiens) (UniProt Q9UQD0). The conditions noted are these: HEK-293T, 30 nM.
Description: Antagonist activity at human Nav1.6 expressed in HEK293T cells assessed as inhibition of VTD-induced sustained current at 30 nM by whole cell patch clamp method relative to control
Assay [7] has as its target Sodium channel protein type 9 subunit alpha (Homo sapiens) (UniProt Q15858). The conditions noted are these: HEK-293T, 30 nM.
Description: Antagonist activity at human Nav1.7 expressed in HEK293T cells assessed as inhibition of VTD-induced peak current at 30 nM by whole cell patch clamp method relative to control
The target is the same in assay [8]. The conditions noted are these: HEK-293T, 30 nM. The source holds these as a separate data set.
Description: Antagonist activity at human Nav1.7 expressed in HEK293T cells assessed as inhibition of VTD-induced sustained current at 30 nM by whole cell patch clamp method relative to control
In assay [9] the target is Sodium channel protein type 8 subunit alpha (Homo sapiens) (UniProt Q9UQD0). The conditions noted are these: HEK-293T, 30 nM. This is another data set of the same source.
Description: Antagonist activity at human Nav1.6 expressed in HEK293T cells assessed as inhibition of VTD-induced tail current at 30 nM at holding potential of -100mV by whole cell patch clamp method relative to control
For assay [10], the species on record is Mus musculus. Description: Antagonist activity at VSSC in mouse Neuro2a cells assessed as inhibition of peak current at holding potential of -100mV at 100 nM by patch-clamp method. The class given is cell-based.
For assay [11], the target named is Sodium channel protein type 9 subunit alpha (Homo sapiens) (UniProt Q15858). The conditions noted are these: HEK-293T, 30 nM. The source holds these as a separate data set.
Description: Antagonist activity at human Nav1.7 expressed in HEK293T cells assessed as inhibition of VTD-induced tail current at 30 nM at holding potential of -100mV by whole cell patch clamp method relative to control
The target of assay [12] is Sodium channel protein type 8 subunit alpha (Homo sapiens) (UniProt Q9UQD0). The conditions noted are these: HEK-293T, 30 nM. The source holds these as a separate data set.
Description: Antagonist activity at human Nav1.6 expressed in HEK293T cells assessed as inhibition of VTD-induced peak current at 30 nM by whole cell patch clamp method relative to control
Assay [13] addresses Sodium channel protein type 9 subunit alpha (Homo sapiens) (UniProt Q15858). Nature of the assay: Antagonist activity at human Nav1.7 expressed in HEK293T cells assessed as inhibition of VTD-induced tail current at 1 uM at holding potential of -100mV by whole cell patch clamp method relative to control. The class given is cell-based. The conditions noted are these: HEK-293T.

Assay [14] addresses Sodium channel protein type 8 subunit alpha (Homo sapiens) (UniProt Q9UQD0). Nature of the assay: Antagonist activity at human Nav1.6 expressed in HEK293T cells assessed as inhibition of VTD-induced sustained current at 1 uM by whole cell patch clamp method relative to control. Format: cell-based. The note with it: HEK-293T.
For assay [15] the target is unchanged. Description: Antagonist activity at human Nav1.6 expressed in HEK293T cells assessed as inhibition of VTD-induced tail current at 1 uM at holding potential of -100mV by whole cell patch clamp method relative to control. Format: cell-based. The note with it: HEK-293T.
In assay [16] the target is Sodium channel protein type 9 subunit alpha (Homo sapiens) (UniProt Q15858). Nature of the assay: Antagonist activity at human Nav1.7 expressed in HEK293T cells assessed as inhibition of VTD-induced peak current at 1 uM by whole cell patch clamp method relative to control. The class given is cell-based. The note with it: HEK-293T.
Assay [17] has as its target Sodium channel protein type 8 subunit alpha (Homo sapiens) (UniProt Q9UQD0). Description: Antagonist activity at human Nav1.6 expressed in HEK293T cells assessed as inhibition of VTD-induced peak current at 1 uM by whole cell patch clamp method relative to control. The class given is cell-based. The note with it: HEK-293T.
Assay [18] addresses Sodium channel protein type 9 subunit alpha (Homo sapiens) (UniProt Q15858). Nature of the assay: Antagonist activity at human Nav1.7 expressed in HEK293T cells assessed as inhibition of VTD-induced sustained current at 1 uM by whole cell patch clamp method relative to control. Format: cell-based. The note with it: HEK-293T.
Assay [19] deals with T1, Sodium channel protein type 2 subunit alpha. Nature of the assay: Ratio of IC50 for Nav1.2 (unknown origin) by cell based assay to IC50 for human Nav1.2 expressed in HEK293T cells assessed as inhibition of VTD-induced sustained current.
Target sequence in this assay (Q99250 whole entry, looked up): as above

The structures appear in SMILES notation. The source made the active and inactive calls. The rule behind the calls is not given here.

Chain of Sodium channel protein type 9 subunit alpha (Homo sapiens) (Q15858 whole entry, looked up): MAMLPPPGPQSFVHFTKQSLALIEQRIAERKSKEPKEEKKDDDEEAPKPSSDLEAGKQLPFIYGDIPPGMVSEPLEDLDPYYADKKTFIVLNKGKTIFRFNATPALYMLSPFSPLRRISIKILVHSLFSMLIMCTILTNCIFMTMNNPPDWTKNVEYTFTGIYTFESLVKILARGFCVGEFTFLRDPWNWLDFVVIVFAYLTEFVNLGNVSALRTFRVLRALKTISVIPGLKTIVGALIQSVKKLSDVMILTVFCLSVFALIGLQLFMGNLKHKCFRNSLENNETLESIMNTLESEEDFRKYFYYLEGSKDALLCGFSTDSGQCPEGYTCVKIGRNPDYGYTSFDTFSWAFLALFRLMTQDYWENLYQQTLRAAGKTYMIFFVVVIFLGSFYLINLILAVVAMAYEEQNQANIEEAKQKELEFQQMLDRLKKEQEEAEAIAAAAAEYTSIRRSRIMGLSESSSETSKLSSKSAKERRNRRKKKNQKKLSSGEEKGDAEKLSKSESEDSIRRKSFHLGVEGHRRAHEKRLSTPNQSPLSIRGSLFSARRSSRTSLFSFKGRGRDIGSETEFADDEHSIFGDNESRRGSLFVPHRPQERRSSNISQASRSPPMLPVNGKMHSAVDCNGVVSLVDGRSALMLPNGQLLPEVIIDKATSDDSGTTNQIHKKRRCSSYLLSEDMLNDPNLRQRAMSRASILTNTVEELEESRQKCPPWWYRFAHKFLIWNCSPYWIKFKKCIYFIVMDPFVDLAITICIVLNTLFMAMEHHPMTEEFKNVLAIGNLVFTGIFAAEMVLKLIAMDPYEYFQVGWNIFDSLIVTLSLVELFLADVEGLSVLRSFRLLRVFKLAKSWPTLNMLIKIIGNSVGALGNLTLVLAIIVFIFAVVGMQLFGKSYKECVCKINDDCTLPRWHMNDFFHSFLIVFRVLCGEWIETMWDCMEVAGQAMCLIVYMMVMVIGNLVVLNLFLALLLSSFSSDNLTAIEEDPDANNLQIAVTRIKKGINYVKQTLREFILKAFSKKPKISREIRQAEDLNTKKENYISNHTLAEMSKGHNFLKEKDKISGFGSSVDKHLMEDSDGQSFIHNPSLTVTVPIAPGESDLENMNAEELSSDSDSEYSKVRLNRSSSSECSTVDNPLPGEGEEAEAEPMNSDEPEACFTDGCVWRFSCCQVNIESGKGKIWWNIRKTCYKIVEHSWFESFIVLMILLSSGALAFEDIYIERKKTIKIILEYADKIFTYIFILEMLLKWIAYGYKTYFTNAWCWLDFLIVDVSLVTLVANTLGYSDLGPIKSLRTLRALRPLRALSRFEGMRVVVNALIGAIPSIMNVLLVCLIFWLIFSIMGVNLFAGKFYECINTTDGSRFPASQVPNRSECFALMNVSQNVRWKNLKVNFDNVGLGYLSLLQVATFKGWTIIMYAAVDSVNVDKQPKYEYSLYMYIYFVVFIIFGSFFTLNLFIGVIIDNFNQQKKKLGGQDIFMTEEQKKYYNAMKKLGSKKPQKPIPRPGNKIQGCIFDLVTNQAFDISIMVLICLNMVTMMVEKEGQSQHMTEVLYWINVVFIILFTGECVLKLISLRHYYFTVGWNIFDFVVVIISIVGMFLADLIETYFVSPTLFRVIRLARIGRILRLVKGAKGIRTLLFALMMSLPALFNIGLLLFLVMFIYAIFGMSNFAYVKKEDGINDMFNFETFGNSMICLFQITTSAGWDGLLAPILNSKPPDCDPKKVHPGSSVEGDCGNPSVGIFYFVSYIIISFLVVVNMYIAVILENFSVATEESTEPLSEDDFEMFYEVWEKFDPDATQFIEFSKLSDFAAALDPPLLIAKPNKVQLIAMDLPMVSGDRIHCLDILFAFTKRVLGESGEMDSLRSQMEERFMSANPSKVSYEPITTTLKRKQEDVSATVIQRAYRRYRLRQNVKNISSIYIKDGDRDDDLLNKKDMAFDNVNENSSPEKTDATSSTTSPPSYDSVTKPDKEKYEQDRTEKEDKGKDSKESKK

`CCCCCCCCCC[C@H]1C[C@@]2(CCCO2)NC(=N)N1`: in assay [1], the Ratio IC50 stood at 60. Besides, in [2], the EC50 turned out to be 120 nM. For the same compound, the IC50 in assay [3] worked out at 2.1 nM; in assay [4] it was 2 nM. Moreover, the inhibition result in assay [3] and in assay [4] was “Dose-dependent effect” throughout. The inhibition result in assay [5] was “Active”.

`NC1=N[C@H](O)[C@H]2[C@H]3O[C@]4(O)O[C@@H]([C@@H](O)[C@@]2(N1)[C@@H]4O)[C@]3(O)CO`: the inhibition entry in assay [6], in assay [7], in assay [8], in assay [9], in assay [10] and in assay [11] was “Active” throughout. In addition, the inhibition entry in assay [12] was “Active”.

In the case of `CCCCCCCCCC[C@@H]1NC(=N)N[C@]2(CCCO2)[C@@H]1C(=O)O`, the inhibition result in assay [10] was “inactive”. In assay [2], this compound returned an EC50 of 79 nM. In addition, in [3], the IC50 worked out at 7.5 nM and the inhibition entry was “Dose-dependent effect”. In [4], the IC50 was determined as 35 nM and the inhibition entry was “Dose-dependent effect”. Also, the inhibition result in [5] was “Active”.

As for `CCCCCCCCCCC1NC(=N)NC2(CCCO2)C1C(=O)O` (racemic), the inhibition result in assay [13], in [14], in assay [15], in assay [16], in assay [17] and in [18] was “Active” throughout.

With `CCCCCCCCCC[C@H]1NC(=N)N[C@@]2(CCCO2)[C@H]1C(=O)O`, the inhibition result in [10] was “inactive”. Moreover, the EC50 in assay [2] came out at 5.3 nM. The 50% inhibitory concentration (IC50) in [3] came out at 26 nM; in [4], 170 nM. Further, the inhibition entry in [3] and in assay [4] was “Dose-dependent effect” each time. Further, in assay [5], the inhibition entry is “Active”.

As for `CCCCCCCCCC[C@@H]1C[C@]2(CCCO2)NC(=N)N1`, a half-maximal response in assay [2] (EC50) required 12 nM. In assay [3], the IC50 turned out to be 0.45 nM and the inhibition result was “Dose-dependent effect”. In assay [4], the IC50 was determined as 0.28 nM and the inhibition entry is “Dose-dependent effect”. In addition, in [19], the Ratio IC50 amounted to 43.

One may read the EC50 as the concentration giving half of the maximal effect. Usually IC50 stands for the midpoint of a concentration-inhibition curve.

For the origin of these results see ChEMBL document CHEMBL3997806, “Inhibition of veratridine-induced delayed inactivation of the voltage-sensitive sodium channel by synthetic analogs of crambescin B” (Bioorg Med Chem Lett, 2017).
